± gives the expanded uncertainty stated by the source.

A short description of the series: activity coefficient (dimensionless); of the first substance listed, at infinite dilution; xn = mol fraction of the nth substance listed. The settings on record: 323.15 K; 101 kPa; Liquid; Chromatography; x1 = 0.
Regarding `Cc1ccccc1` [toluene] + CCCCCCCCCC[n+]1ccn(CCCB(O)O)c1.[Br-], the activity coefficient worked out at 1.8 ± 0.12. As for `C=CCCCC` [hex-1-ene] + C=CC[n+]1ccn(CCCCCCCCCCCC)c1.[Br-], the figure is 3.47 ± 0.24. Under `CCc1ccccc1` [ethylbenzene] + C[n+]1ccn(CCCB(O)O)c1.[Br-] stands 45.1 ± 3.1; under `ClC(Cl)(Cl)Cl` [tetrachloromethane] + C=CCn1cc[n+](C)c1.[Br-], 1.54 ± 0.1.

With `c1ccsc1` [thiophene] + CCCCCCCC[n+]1ccn(CCCB(O)O)c1.[Br-], the activity coefficient came out at 1.2 ± 0.08. As to `CC(C)O` [propan-2-ol] + C=CC[n+]1ccn(CCCCCCCCCC)c1.[Br-], the activity coefficient was found to be 0.35 ± 0.03. `C#CCCCC` [1-hexyne] + CCCCCCCCCC[n+]1ccn(CCCB(O)O)c1.[Br-]: the activity coefficient stood at 1.77 ± 0.12. Turning to `c1ccsc1` [thiophene] + C=CC[n+]1ccn(CCCCCCCCCCCC)c1.[Br-], the activity coefficient was determined as 0.77 ± 0.05.

For the compound `c1ccccc1` [benzene] + CCCCCCCC[n+]1ccn(CCCB(O)O)c1.[Br-], the activity coefficient amounted to 1.84 ± 0.12. In the case of `C1COCCO1` [1,4-dioxane] + CCCCCCCCCC[n+]1ccn(CCCB(O)O)c1.[Br-], the activity coefficient stood at 1.38 ± 0.09. Under `CCO` [ethanol] + C=CC[n+]1ccn(CCCCCCCC)c1.[Br-] stands 0.27 ± 0.03; under `CCCO` [propan-1-ol] + C=CCn1cc[n+](C)c1.[Br-], 0.54 ± 0.04.

On to `CCCCCCC` [heptane] + C=CCn1cc[n+](C)c1.[Br-], for which the activity coefficient was found to be 49.6 ± 3.4. As for `C#CCCCC` [1-hexyne] + C=CC[n+]1ccn(CCCCCCCC)c1.[Br-], the figure is 2.04 ± 0.14. Under `CC(C)O` [propan-2-ol] + C=CC[n+]1ccn(CCCCCCCCCCCC)c1.[Br-] stands 0.29 ± 0.03; under `CO` [methanol] + C=CC[n+]1ccn(CCCCCCCC)c1.[Br-], 0.17 ± 0.03.

On to `CCCCCCCC` [octane] + CCCCCCCC[n+]1ccn(CCCB(O)O)c1.[Br-], for which the activity coefficient stood at 23.6 ± 1.6.

Turning to `Cc1ccccc1C` [1,2-dimethylbenzene] + C=CC[n+]1ccn(CCCCCCCC)c1.[Br-], the activity coefficient came to 2.39 ± 0.16. With `C1COCCO1` [1,4-dioxane] + C=CC[n+]1ccn(CCCCCCCC)c1.[Br-], the activity coefficient stood at 1.52 ± 0.1. Under `CCCCCCCCC` [nonane] + CCCCCCCCCCCC[n+]1ccn(CCCB(O)O)c1.[Br-] stands 6.99 ± 0.48.

Take `CCCCCC` [hexane] + C=CC[n+]1ccn(CCCCCCCC)c1.[Br-]: the activity coefficient was found to be 8.9 ± 0.61. As for `ClC(Cl)Cl` [trichloromethane] + C=CC[n+]1ccn(CCCCCCCC)c1.[Br-], the figure is 0.14 ± 0.03.

As to `CC#N` [acetonitrile] + CCCCCCCCCC[n+]1ccn(CCCB(O)O)c1.[Br-], the activity coefficient worked out at 0.95 ± 0.06.

Take `CCc1ccccc1` [ethylbenzene] + C=CC[n+]1ccn(CCCCCCCCCCCC)c1.[Br-]: the activity coefficient worked out at 1.77 ± 0.12. With `Cc1cccc(C)c1` [1,3-dimethylbenzene] + C=CC[n+]1ccn(CCCCCCCC)c1.[Br-], the activity coefficient turned out to be 2.73 ± 0.19. On to `C=CCCCC` [hex-1-ene] + CCCCCCCCCC[n+]1ccn(CCCB(O)O)c1.[Br-], for which the activity coefficient amounted to 3.76 ± 0.26. As to `CCCCCCCCC` [nonane] + C[n+]1ccn(CCCB(O)O)c1.[Br-], the activity coefficient was found to be 83.2 ± 5.7.

With `CCC(C)=O` [butanone] + C=CC[n+]1ccn(CCCCCCCC)c1.[Br-], the activity coefficient was found to be 1.46 ± 0.1. As for `CCCO` [propan-1-ol] + C=CC[n+]1ccn(CCCCCCCCCCCC)c1.[Br-], the figure is 0.23 ± 0.03. As for `c1ccccc1` [benzene] + CCCCCCCCCCCC[n+]1ccn(CCCB(O)O)c1.[Br-], the figure is 1.21 ± 0.08. In the case of `CC(C)O` [propan-2-ol] + C=CC[n+]1ccn(CCCCCCCC)c1.[Br-], the activity coefficient was determined as 0.36 ± 0.03.

For the compound `CCC[N+](=O)[O-]` [1-nitropropane] + CCCCCCCCCCCC[n+]1ccn(CCCB(O)O)c1.[Br-], the activity coefficient amounted to 1.51 ± 0.1. On to `CCCCCCCCC` [nonane] + C=CC[n+]1ccn(CCCCCCCCCCCC)c1.[Br-], for which the activity coefficient came to 6.93 ± 0.47. In the case of `ClCCl` [dichloromethane] + CCCCCCCCCCCC[n+]1ccn(CCCB(O)O)c1.[Br-], the activity coefficient was found to be 0.34 ± 0.03.

With `C=CCCCC` [hex-1-ene] + CCCCCCCC[n+]1ccn(CCCB(O)O)c1.[Br-], the activity coefficient came out at 8.32 ± 0.57. Take `CCCCCC` [hexane] + CCCCCCCCCCCC[n+]1ccn(CCCB(O)O)c1.[Br-]: the activity coefficient was 4.65 ± 0.32. Under `CCCCCCCC` [octane] + CCCCCCCCCCCC[n+]1ccn(CCCB(O)O)c1.[Br-] stands 6.34 ± 0.43. Under `CCc1ccccc1` [ethylbenzene] + CCCCCCCC[n+]1ccn(CCCB(O)O)c1.[Br-] stands 3.28 ± 0.22; under `Cc1ccccc1` [toluene] + CCCCCCCCCCCC[n+]1ccn(CCCB(O)O)c1.[Br-], 3.36 ± 0.23.

Consider `CCC(C)=O` [butanone] + CCCCCCCC[n+]1ccn(CCCB(O)O)c1.[Br-], for which the activity coefficient was determined as 1.88 ± 0.13. As for `CCCC(C)=O` [pentan-2-one] + C=CC[n+]1ccn(CCCCCCCCCC)c1.[Br-], the figure is 1.78 ± 0.12.

Consider `C#CCCCCC` [1-heptyne] + C=CC[n+]1ccn(CCCCCCCCCCCC)c1.[Br-], for which the activity coefficient was 1.87 ± 0.13.

For `c1ccccc1` [benzene] + C[n+]1ccn(CCCB(O)O)c1.[Br-], the activity coefficient turned out to be 18.1 ± 1.2.

On to `C1COCCO1` [1,4-dioxane] + CCCCCCCC[n+]1ccn(CCCB(O)O)c1.[Br-], for which the activity coefficient stood at 1.78 ± 0.12. On to `CCOCC` [diethyl ether] + C=CC[n+]1ccn(CCCCCCCC)c1.[Br-], for which the activity coefficient was determined as 4.18 ± 0.28. Under `c1ccsc1` [thiophene] + CCCCCCCCCC[n+]1ccn(CCCB(O)O)c1.[Br-] stands 0.79 ± 0.05; under `C1COCCO1` [1,4-dioxane] + C=CC[n+]1ccn(CCCCCCCCCCCC)c1.[Br-], 1.3 ± 0.08. For `CC#N` [acetonitrile] + C[n+]1ccn(CCCB(O)O)c1.[Br-], the activity coefficient was determined as 3.3 ± 0.22. Turning to `CCOCC` [diethyl ether] + C=CCn1cc[n+](C)c1.[Br-], the activity coefficient amounted to 11.4 ± 0.78. Under `C#CCCCC` [1-hexyne] + C=CCn1cc[n+](C)c1.[Br-] stands 8.27 ± 0.56.

Consider `CCCC(C)=O` [pentan-2-one] + C=CCn1cc[n+](C)c1.[Br-], for which the activity coefficient was 4.32 ± 0.29. Take `C1CCCCC1` [cyclohexane] + CCCCCCCCCCCC[n+]1ccn(CCCB(O)O)c1.[Br-]: the activity coefficient came to 3.25 ± 0.22.

Take `C#CCCCC` [1-hexyne] + CCCCCCCC[n+]1ccn(CCCB(O)O)c1.[Br-]: the activity coefficient is 2.77 ± 0.19. Under `CCC(C)=O` [butanone] + C=CCn1cc[n+](C)c1.[Br-] stands 2.68 ± 0.18; under `CC(C)CO` [2-methyl-1-propanol] + C=CC[n+]1ccn(CCCCCCCC)c1.[Br-], 0.29 ± 0.03. For `C=CCCCC` [hex-1-ene] + CCCCCCCCCCCC[n+]1ccn(CCCB(O)O)c1.[Br-], the activity coefficient was determined as 3.6 ± 0.25. Under `C#CCCCCC` [1-heptyne] + C[n+]1ccn(CCCB(O)O)c1.[Br-] stands 42.9 ± 2.9; under `Cc1ccccc1` [toluene] + CCCCCCCC[n+]1ccn(CCCB(O)O)c1.[Br-], 2.41 ± 0.16; under `CC#N` [acetonitrile] + CCCCCCCC[n+]1ccn(CCCB(O)O)c1.[Br-], 1.28 ± 0.08. As for `C#CCCCCC` [1-heptyne] + CCCCCCCC[n+]1ccn(CCCB(O)O)c1.[Br-], the figure is 3.7 ± 0.25; as for `Cc1ccccc1C` [1,2-dimethylbenzene] + CCCCCCCC[n+]1ccn(CCCB(O)O)c1.[Br-], 3.11 ± 0.21; as for `CCCCCCCC` [octane] + C[n+]1ccn(CCCB(O)O)c1.[Br-], 81 ± 5.5. With `CCc1ccccc1` [ethylbenzene] + C=CCn1cc[n+](C)c1.[Br-], the activity coefficient was 11.1 ± 0.76. Take `CCCCCCC` [heptane] + C=CC[n+]1ccn(CCCCCCCC)c1.[Br-]: the activity coefficient was 11.4 ± 0.78.

In the case of `CCCCCCCC` [octane] + C=CC[n+]1ccn(CCCCCCCC)c1.[Br-], the activity coefficient is 14.9 ± 1.

For the compound `C1COCCO1` [1,4-dioxane] + C[n+]1ccn(CCCB(O)O)c1.[Br-], the activity coefficient was 11.2 ± 0.77. For the compound `Cc1ccccc1C` [1,2-dimethylbenzene] + C=CC[n+]1ccn(CCCCCCCCCC)c1.[Br-], the activity coefficient turned out to be 2.34 ± 0.16. As for `CO` [methanol] + CCCCCCCC[n+]1ccn(CCCB(O)O)c1.[Br-], the figure is 0.04; as for `CCCCCCCCC` [nonane] + CCCCCCCCCC[n+]1ccn(CCCB(O)O)c1.[Br-], 9.92 ± 0.68. As for `CCO` [ethanol] + C=CCn1cc[n+](C)c1.[Br-], the figure is 0.27 ± 0.03. Under `CCC[N+](=O)[O-]` [1-nitropropane] + C=CC[n+]1ccn(CCCCCCCCCCCC)c1.[Br-] stands 1.12 ± 0.07; under `CCCCCCCC` [octane] + CCCCCCCCCC[n+]1ccn(CCCB(O)O)c1.[Br-], 8.81 ± 0.6. Take `CCCCCCC` [heptane] + CCCCCCCCCC[n+]1ccn(CCCB(O)O)c1.[Br-]: the activity coefficient is 7.04 ± 0.48. `C1COCCO1` [1,4-dioxane] + CCCCCCCCCCCC[n+]1ccn(CCCB(O)O)c1.[Br-]: the activity coefficient came out at 1.32 ± 0.09. Take `Cc1ccccc1` [toluene] + C=CC[n+]1ccn(CCCCCCCCCCCC)c1.[Br-]: the activity coefficient turned out to be 1.38 ± 0.09. Take `C1CCCCC1` [cyclohexane] + CCCCCCCC[n+]1ccn(CCCB(O)O)c1.[Br-]: the activity coefficient was 8.15 ± 0.56. Under `CC(C)CO` [2-methyl-1-propanol] + C=CC[n+]1ccn(CCCCCCCCCC)c1.[Br-] stands 0.29 ± 0.03; under `CC(C)CO` [2-methyl-1-propanol] + C=CC[n+]1ccn(CCCCCCCCCCCC)c1.[Br-], 0.23 ± 0.03; under `c1ccccc1` [benzene] + C=CC[n+]1ccn(CCCCCCCCCC)c1.[Br-], 1.39 ± 0.09.

Source of the values: the NIST ThermoML archive (doi:10.1021/je060033f).
